The record followed here is patent US9097667B2, “Fluorescent compounds” (BIOTIUM, INC., priority 2007, dated 2015).

A short description of the first data set: Total fluorescence vs. degree of labeling (DOL) of protein dye-conjugates. Type of data set: physicochemical. The conditions noted are these: goat anti-mouse IgG conjugates, excited at 350 nm, compared to AMCA; FIG. 7. How it is done: Fluorescent conjugates of goat anti-mouse IgG (GAM), goat anti-rabbit IgG (GAR), and streptavidin were prepared from the respective proteins and a reactive dye, following published procedures (U.S. Pat. No. 6,974,873; Haugland et al., Meth. Mol. Biol. 45, 205 (1995); Haugland et al., Meth. Mol. Biol. 45, 223 (1995); Haugland et al., Meth. Mol. Biol. 45, 235 (1995); Haugland et al., Current Protocols in Cell Biology, 16.5.1-16.5.22 (2000)). Briefly, an antibody or streptavidin at 1 mg/mL in […] pH 8.5 sodium bicarbonate buffer was mixed with one of the reactive dye at various ratio of dye molecules/protein molecule. After incubating for about an hour at room temperature, the reaction mixture was separated by gel filtration using Sephadex G-25 equilibrated with PBS (pH 7.4). The various dye molecules/protein ratios used in the labeling reactions produced protein conjugates with different degree of dye labeling (DOL) as listed in Table 7 below for each dye/protein pair.
The fluorescence of the conjugates was measured using a JACSO fluorescence spectrophotometer and was then plotted against the DOL to give FIGS. 4-7.
A set of goat anti-mouse IgG conjugates were prepared by labeling a portion of goat anti-mouse IgG with one of three near IR dyes. […]
Take `COCCOCCOCCOCCOCCOCCOCCOCCOCCOCCOCCN(CCCCCC(=O)ON1C(=O)CCC1=O)C(=O)Cc1c(C)c2ccc(N)cc2oc1=O` [Compound No. 92]: the “total fluorescence vs. degree of labeling (DOL)” value was “higher fluorescence quantum yield over a wide of degree of labeling and has less fluorescence quenching when the antibody is at higher degrees of labeling”.

The nature of a further data set: Absorption and emission spectra of the dyes (λabs/λem in H2O). Type of data set: physicochemical. The conditions noted are these: Table 5, coumarin-based fluorescent groups. An excerpt: For compounds of Formula II, it is well known to a person of skill in the art to select the bridging unit Y, in combination with a specific embodiment of a moiety of Formula F, in combination with a specific embodiment of moiety Y, and in combination with specific substituents such that the maximal fluorescence excitation wavelength of the compound ranges from about 350 to about 1200 nm. Standard analysis well known in the art is used to obtain the absorption and emission spectra of the dyes in order to ascertain the absorption maximal wavelength and the maximal fluorescence emission wavelength. Any combinations of the above described groups may be used to form a compound of the invention with a maximal fluorescence excitation wavelength of about 550 nm, about 560 nm, about 570 nm, about 580 nm, about 590 nm, about 600 nm, about 610 nm, about 620 nm, about 615 nm, about 620 nm, about 625 nm, about 630 nm, about 635 nm, about 640 nm, about 650 nm, about 655 nm, about 660 nm, about 665 nm, about 670 nm, about 675 nm, about 680 nm, about 685 nm, about 690 nm, about 695 nm, about 700 nm, about 705 nm, about 710 nm, about 715 nm, about 720 nm, about 725 nm, about 730 nm, about 735 nm, about 740 nm, about 745 nm, about 750 nm, about 755 nm, about 760 nm, about 765 nm, about 770 nm, about 775 nm, about 780 nm, about 790 nm, about 800 nm, about 810 nm, about 820 nm, about 830 nm, about 840 nm, about 850 nm, about 860 nm, about 870 nm, about 880 nm, about 890 nm, about 900 nm, about 910 nm, about 920 nm, about 930 nm, about 940 nm, about 950 nm, about 960 nm, about 970 nm, about 980 nm, about 990 nm, about 1000 nm, about 1020 nm, about 1040 nm, about 1060 nm, about 1080 nm, about 1100 nm, about 1120 nm, about 1140 nm, about 1160 nm, about 1180 nm, or about 1200 nm. The moieties described above may be used in any combination. The maximal fluorescence excitation wavelength of the dye is typically the wavelength at which the dye has a maximal absorption or maximal optical density, which excites the dye to fluoresce. In some embodiments, the compound of Formula II has an absorption maximal wavelength at >670 nm. In one embodiment, the absorption maximal wavelength is at >700 nm. According to another embodiment, the absorption maximal wavelength is at >800 nm.
Regarding `C=C(Cc1c(C)c2ccc(N)cc2oc1=O)N(CCCCCC(=O)ON1C(=O)CCC1=O)CCOCCOCCOCCOCCOCCOCCOCCOCCOCCOCCOCCOC` [compound 50], the λabs amounted to 353 nm and the λcm was 442 nm.

Turning to `COCCOCCOCCOCCOCCOCCOCCOCCOCCOCCOCCOCCN(CCCCCC(=O)ON1C(=O)CCC1=O)C(=O)Cc1c(C)c2cc(S(=O)(=O)O)c(N)cc2oc1=O` [Compound No. 51], the λabs is given as 346 nm and the λcm was determined as 442 nm.

As to `COCCOCCOCCOCCOCCOCCOCCOCCOCCOCCOCCOCCOCCOCCOCCOCCOCCOCCOCCOCCOCCOCCOCCOCCN(CCCCCC(=O)ON1C(=O)CCC1=O)C(=O)CCCCCN1c2cc3oc(=O)cc(C(F)(F)F)c3cc2C(CS(=O)(=O)O)=CC1(C)C` [compound 53], the λabs is on record as 430 nm and the λcm was found to be 545 nm.

For `COCCOCCOCCOCCOCCOCCOCCOCCOCCOCCOCCOCCN(CCCCCC(=O)ON1C(=O)CCC1=O)C(=O)c1cc2cc(F)c(O)c(F)c2oc1=O` [Compound No. 52], the λabs came out at 416 nm and the λcm is listed as 465 nm.
